Measurements as given in patent US20230312583A1, “1H-IMIDAZO [4,5-H] QUINAZOLINE COMPOUND AS NOVEL SELECTIVE FLT3 INHIBITORS” (SHENGKE PHARMACEUTICALS (JIANGSU) LTD., priority 2020, published 2023).

How the values were obtained:
Format in all cases: biochemical
Details in all cases: 10 μM ATP
CDK4/cyclin D1 = CDK4/cyclin D1 (Homo sapiens (Human), UniProt P11802); assay: Radiometric 33P-ATP kinase inhibition assay, CDK4/cyclin
Protocol: (§1) Reactions were carried out in the presence of 10 μM ATP.
(§2) Procedures: • 1. Compounds were prepared in freshly prepared reaction buffers containing 20 mM HEPES (pH 7.5), 10 mM MgCl2, 1 mM EGTA, 0.01% Brij35, 0.02 mg/ml, BSA, 0.1 mM Na3VO4, 2 mM DTT, and 1% DMSO. • 2. […] Kinase such as 10 ng of recombinant CDK4/cyclin D1 (Life Technologies PV4204) diluted in a kinase buffer (20 mM Tris pH7.5, 10 mM MgCl2, 0.01% NP-40, 2 mM DTT), and incubated at room temperature for 30 minutes together with indicated concentration of inhibitors. • 4. Compounds in DMSO were added into the kinase reaction mixture utilizing acoustic technology (Echo550). • 5. 33P-ATP (specific activity 0.01 μCi/μl final) was added into the reaction mixture to initiate the reaction. • 6. The reaction mixture was incubated for 120 minutes at room temperature. • 7. […] Filters were extensively washed with 0.75% phosphoric acid. • 9. The radioactive phosphorylated substrate remaining on the filter paper was measured.
(§3) Kinase activity data were expressed as the percent remaining kinase activity in test samples compared to vehicle (dimethyl sulfoxide) reactions. IC50 values and curve fits were obtained using Prism4 Software (GraphPad).

C-Klt = C-Klt (Homo sapiens (Human), UniProt P10721); assay: Radiometric 33P-ATP kinase inhibition assay, C-Klt
Protocol: as §1, §2, §3

CDK2/cyclin E = CDK2/cyclin E (Homo sapiens (Human), UniProt P24941); assay: Radiometric 33P-ATP kinase inhibition assay, CDK2/cyclin E
Protocol: as §1, §2, §3

CDK6/cyclin D1 = CDK6/cyclin D1 (Homo sapiens (Human), UniProt Q00534); assay: Radiometric 33P-ATP kinase inhibition assay, CDK6/cyclin D1
Protocol: as §1, §2, §3

CDK1/cyclin B = CDK1/cyclin B (Homo sapiens (Human), UniProt P06493); assay: Radiometric 33P-ATP kinase inhibition assay, CDK1/cyclin B
Protocol: as §1, §2, §3

Chain of CDK4/cyclin D1 (P11802 whole entry): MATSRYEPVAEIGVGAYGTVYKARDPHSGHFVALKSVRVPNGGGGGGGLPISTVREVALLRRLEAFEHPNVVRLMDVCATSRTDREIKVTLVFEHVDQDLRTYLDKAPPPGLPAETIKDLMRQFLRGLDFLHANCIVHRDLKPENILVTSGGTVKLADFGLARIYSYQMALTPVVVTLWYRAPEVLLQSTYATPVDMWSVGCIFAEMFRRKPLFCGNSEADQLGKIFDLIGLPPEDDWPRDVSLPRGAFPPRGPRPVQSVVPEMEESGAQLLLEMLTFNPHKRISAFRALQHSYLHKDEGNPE
Chain of CDK4/cyclin D1 (P24385 whole entry partner): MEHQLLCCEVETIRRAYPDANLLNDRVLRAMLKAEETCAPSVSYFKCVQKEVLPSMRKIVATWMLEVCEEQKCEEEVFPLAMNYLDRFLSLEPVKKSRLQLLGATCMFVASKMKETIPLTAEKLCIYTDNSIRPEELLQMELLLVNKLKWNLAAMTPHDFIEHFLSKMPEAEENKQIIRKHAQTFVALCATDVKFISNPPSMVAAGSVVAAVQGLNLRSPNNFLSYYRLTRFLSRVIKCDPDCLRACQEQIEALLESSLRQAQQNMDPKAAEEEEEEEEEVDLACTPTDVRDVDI
Chain of C-Klt (P10721 26-976): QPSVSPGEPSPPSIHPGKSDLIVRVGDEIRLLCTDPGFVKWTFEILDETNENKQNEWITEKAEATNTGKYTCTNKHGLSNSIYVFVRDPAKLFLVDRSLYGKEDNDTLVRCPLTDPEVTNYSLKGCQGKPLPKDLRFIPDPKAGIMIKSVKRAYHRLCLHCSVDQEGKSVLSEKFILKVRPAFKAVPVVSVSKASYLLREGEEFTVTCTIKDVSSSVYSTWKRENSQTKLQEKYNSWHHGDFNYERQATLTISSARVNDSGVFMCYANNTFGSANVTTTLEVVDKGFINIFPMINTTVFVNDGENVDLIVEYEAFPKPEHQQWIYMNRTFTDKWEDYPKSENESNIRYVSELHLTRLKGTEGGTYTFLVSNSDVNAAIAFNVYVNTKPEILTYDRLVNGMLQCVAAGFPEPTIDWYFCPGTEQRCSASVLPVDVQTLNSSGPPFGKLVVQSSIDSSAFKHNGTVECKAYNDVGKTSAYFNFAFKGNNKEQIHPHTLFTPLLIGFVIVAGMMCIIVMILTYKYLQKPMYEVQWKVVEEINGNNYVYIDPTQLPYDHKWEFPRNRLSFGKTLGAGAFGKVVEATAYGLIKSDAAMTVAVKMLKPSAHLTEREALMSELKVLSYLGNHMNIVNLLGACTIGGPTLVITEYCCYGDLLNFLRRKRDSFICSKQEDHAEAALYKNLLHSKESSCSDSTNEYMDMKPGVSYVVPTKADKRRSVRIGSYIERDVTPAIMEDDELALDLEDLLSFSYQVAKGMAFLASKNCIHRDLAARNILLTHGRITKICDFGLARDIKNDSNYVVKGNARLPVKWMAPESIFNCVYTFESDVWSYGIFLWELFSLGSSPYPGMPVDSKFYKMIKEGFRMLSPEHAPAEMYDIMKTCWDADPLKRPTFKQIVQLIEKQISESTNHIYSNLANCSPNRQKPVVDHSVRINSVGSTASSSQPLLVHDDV
Chain of CDK1/cyclin B (P06493 whole entry, species assumed): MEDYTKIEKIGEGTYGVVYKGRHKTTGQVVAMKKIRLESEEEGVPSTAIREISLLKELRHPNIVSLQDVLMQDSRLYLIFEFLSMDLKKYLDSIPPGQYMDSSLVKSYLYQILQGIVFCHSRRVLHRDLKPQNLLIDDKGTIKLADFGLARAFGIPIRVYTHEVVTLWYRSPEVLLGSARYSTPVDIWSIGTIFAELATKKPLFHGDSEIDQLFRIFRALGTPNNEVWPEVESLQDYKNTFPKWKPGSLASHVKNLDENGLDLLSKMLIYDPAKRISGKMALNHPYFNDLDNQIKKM
Chain of CDK1/cyclin B (P14635 whole entry partner, species assumed): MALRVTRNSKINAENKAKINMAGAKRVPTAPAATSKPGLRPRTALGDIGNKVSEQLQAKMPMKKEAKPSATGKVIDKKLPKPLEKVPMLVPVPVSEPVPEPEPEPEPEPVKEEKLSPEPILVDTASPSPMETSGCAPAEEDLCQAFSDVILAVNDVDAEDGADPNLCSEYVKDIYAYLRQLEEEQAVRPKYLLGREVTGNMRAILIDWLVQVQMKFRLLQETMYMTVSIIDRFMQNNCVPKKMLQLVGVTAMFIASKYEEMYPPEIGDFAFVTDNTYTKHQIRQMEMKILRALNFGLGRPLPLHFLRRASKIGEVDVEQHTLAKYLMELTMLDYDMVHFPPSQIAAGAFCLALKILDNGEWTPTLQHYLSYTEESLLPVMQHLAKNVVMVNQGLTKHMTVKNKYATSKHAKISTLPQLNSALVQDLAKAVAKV
Chain of CDK6/cyclin D1 (Q00534 whole entry, species assumed): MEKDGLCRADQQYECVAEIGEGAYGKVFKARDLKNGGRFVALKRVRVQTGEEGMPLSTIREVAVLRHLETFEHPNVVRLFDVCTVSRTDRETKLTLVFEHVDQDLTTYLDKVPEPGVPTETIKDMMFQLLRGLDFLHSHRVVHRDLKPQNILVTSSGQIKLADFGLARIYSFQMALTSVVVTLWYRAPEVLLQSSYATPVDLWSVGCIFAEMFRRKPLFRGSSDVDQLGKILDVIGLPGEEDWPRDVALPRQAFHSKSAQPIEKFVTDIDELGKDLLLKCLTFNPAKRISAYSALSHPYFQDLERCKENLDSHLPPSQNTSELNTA
Chain of CDK6/cyclin D1 (P24385 whole entry partner, species assumed): as the sequence (P24385 whole entry partner) above

| SMILES | IC50 (CDK4/cyclin D1) [nM] | IC50 (C-Klt) [nM] | IC50 (CDK2/cyclin E) [nM] | IC50 (CDK6/cyclin D1) [nM] | IC50 (CDK1/cyclin B) [nM] |
| --- | --- | --- | --- | --- | --- |
| COc1cc(Nc2ncc3ccc4ncn(C(C)C)c4c3n2)ncc1N1CCN(C)CC1 [Compound I-1] | 61 | 32.1 | 189 |  |  |
| CCN1CCN(c2cnc(Nc3ncc4ccc5ncn(C(C)C)c5c4n3)cc2OC)CC1 [Compound I-2, N-(5-(4-ethylpiperazin-1-yl)-4-methoxypyridin-2-yl)-1-isopropyl-1H-imidazo[4,5-h]quinazolin-8-amine] | 66.8 |  | 162 |  |  |
| COc1cc(Nc2ncc3ccc4ncn(C(C)C)c4c3n2)ncc1N1CC2(COC2)C1 [Compound I-3] | 186 | 60.6 | 46.9 |  |  |
| COc1cc(Nc2ncc3ccc4ncn(C(C)C)c4c3n2)ncc1N1CC2(CNC2)C1 [Compound I-4] | 52.9 | 16.6 | 69.5 |  |  |
| COc1cc(Nc2ncc3ccc4ncn(C(C)C)c4c3n2)ncc1N1CCNC(C)(C)C1 [Compound I-5] | 95 | 25.6 | 483 |  |  |
| CNC1CN(c2cnc(Nc3ncc4ccc5ncn(C(C)C)c5c4n3)cc2OC)C1 [Compound I-6] | 245 | 94.7 | > 500 |  |  |
| CCOc1cc(Nc2ncc3ccc4ncn(C(C)C)c4c3n2)ncc1N1CCN(C)CC1 [Compound I-7] | 99.1 | 31.5 | > 500 |  |  |
| CCOc1cc(Nc2ncc3ccc4ncn(C(C)C)c4c3n2)ncc1N1CCOCC1 [Compound I-8] | > 500 | 89.1 | > 500 |  |  |
| CC(C)n1cnc2ccc3cnc(Nc4cc(OCCF)c(N5CC6CC(C5)N6)cn4)nc3c21 [Compound I-9] | 39.5 | 15 | 91.1 | 22.5 |  |
| CC(C)n1cnc2ccc3cnc(Nc4cc(OCC5CC5)c(N5CCNCC5)cn4)nc3c21 [Compound I-10] | 292 | 111 | > 500 |  | 451 |
| COc1cc(Nc2ncc3ccc4ncn(C(C)C)c4c3n2)ncc1N1C2CCC1CNC2 [Compound I-11] | 98.3 | 29.8 | > 500 |  |  |
| COc1cc(Nc2ncc3ccc4ncn(C(C)C)c4c3n2)ncc1N1CC2CCC1CN2 (stereo not shown) [Compound I-12] | 66 | 15 | 301 |  |  |
| CC#CCOc1cc(Nc2ncc3ccc4ncn(C(C)C)c4c3n2)ncc1N1CCNCC1 [Compound I-13] | 109 |  |  |  |  |
| CC(C)n1cnc2ccc3cnc(Nc4cc(Oc5ccccc5)c(N5CCNCC5)cn4)nc3c21 [Compound I-14] | 46.1 | 70.9 | 436 |  |  |
| COc1cc(Nc2ncc3ccc4ncn(C(C)C)c4c3n2)ncc1NCC1COC(=O)N1C (stereo not shown) [Compound I-15] | 267 | 118 | > 500 |  |  |
| CCOc1cc(Nc2ncc3ccc4ncn(CC)c4c3n2)ncc1N1CCN(CC)CC1 [Compound V-1, N-(4-ethoxy-5-(4-ethylpiperazin-1-yl)pyridin-2-yl)-1-ethyl-1H-imidazo[4,5-h]quinazolin-8-amine] | 221 | 21.3 |  |  |  |
| COc1cc(Nc2ncc3cc(C)c4ncn(C(C)C)c4c3n2)ccc1N1CCOCC1 [II-1, 1-isopropyl-N-(3-methoxy-4-morpholinophenyl)-4-methyl-1H-imidazo[4,5-h]quinazolin-8-amine] |  | 75.1 |  |  |  |
| CC(C)Oc1cc(Nc2ncc3ccc4ncn(C)c4c3n2)ncc1N1CCNCC1 [IV-1, N-(4-isopropoxy-5-(piperazin-1-yl)pyridin-2-yl)-1-methyl-1H-imidazo[4,5-h]quinazolin-8-amine] |  | 137 |  |  |  |
| COc1cc(Nc2ncc3ccc4nc(C)n(C(C)C)c4c3n2)ncc1N1CCOCC1 [VI-1, 1-isopropyl-N-(4-methoxy-5-morpholinopyridin-2-yl)-2-methyl-1H-imidazo[4,5-h]quinazolin-8-amine] | 245 | 46 | 89.1 |  | 397 |
